Ki, Ratio and IC50 data for five molecules are collected here from ChEMBL document CHEMBL1131602 (J Med Chem, 1998).

Assay [1] deals with T1, Bifunctional dihydrofolate reductase-thymidylate synthase (Plasmodium falciparum K1, UniProt P13922). Briefly: Binding affinity was evaluated as inhibition of mutant (C59R + S108N) Plasmodium falciparum DHFR-TS.
Target sequence in this assay (P13922 whole entry): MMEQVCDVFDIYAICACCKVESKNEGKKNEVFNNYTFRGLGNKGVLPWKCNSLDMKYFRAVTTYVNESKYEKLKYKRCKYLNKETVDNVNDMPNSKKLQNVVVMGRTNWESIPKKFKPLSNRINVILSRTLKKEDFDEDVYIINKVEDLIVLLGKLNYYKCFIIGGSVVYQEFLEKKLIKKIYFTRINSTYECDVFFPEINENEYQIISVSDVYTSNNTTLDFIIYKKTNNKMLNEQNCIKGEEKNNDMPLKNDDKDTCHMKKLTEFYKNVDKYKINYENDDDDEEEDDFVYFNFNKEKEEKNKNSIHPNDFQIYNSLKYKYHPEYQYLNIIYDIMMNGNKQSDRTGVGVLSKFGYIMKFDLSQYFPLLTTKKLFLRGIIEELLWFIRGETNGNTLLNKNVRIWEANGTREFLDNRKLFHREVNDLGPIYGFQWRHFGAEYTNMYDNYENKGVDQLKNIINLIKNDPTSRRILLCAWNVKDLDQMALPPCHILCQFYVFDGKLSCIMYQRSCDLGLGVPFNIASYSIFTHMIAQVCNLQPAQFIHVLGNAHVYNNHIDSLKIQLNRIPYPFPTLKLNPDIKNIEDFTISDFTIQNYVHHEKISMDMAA
The target of assay [2] is T1, Bifunctional dihydrofolate reductase-thymidylate synthase. As to the kind of experiment: Binding affinity was evaluated as inhibition of recombinant wild type (WT) Plasmodium falciparum DHFR-TS.
Target sequence in this assay (P13922 whole entry): as above
Assay [3] can be described thus: Ratio of inhibitions against mutant and wild type (WT) Plasmodium falciparum DHFR-TS.
Assay [4] deals with Plasmodium falciparum. Briefly: In vitro inhibition of Plasmodium falciparum HB3 (S108N) culture. It counts as functional, organism-based.
Assay [5] relates to Plasmodium falciparum. Briefly: In vitro inhibition of Plasmodium falciparum K1 (S108N + C59R) culture. In kind it is functional, organism-based.
Assay [6] deals with T1, Bifunctional dihydrofolate reductase-thymidylate synthase. As to the kind of experiment: Inhibitory activity against mutant Plasmodium falciparum DHFR-TS.
Target sequence in this assay (P13922 whole entry, looked up): as the sequence (P13922 whole entry) above
The target is the same in assay [7]. Briefly: Inhibitory activity against recombinant wild type (WT) Plasmodium falciparum DHFR-TS.
Target sequence in this assay (P13922 whole entry): as above

As a reminder, the Ki is the dissociation constant of the complex between target and ligand, obtained from inhibition or displacement. `NC(=O)c1ccc[n+]([C@H]2O[C@@H](COP(=O)([O-])OP(=O)(O)OC[C@H]3O[C@@H](n4cnc5c(N)ncnc54)[C@H](OP(=O)(O)O)[C@@H]3O)[C@H](O)[C@@H]2O)c1` [NICOTINAMIDE ADENINE DINUCLEOTIDE PHOSPHATE]: the inhibitory constant (Ki) in assay [1] was 14.5 nM; in assay [2], 4.7 nM. In assay [3], the Ratio came out at 3.09.

The IC50 is the concentration needed to halve the response being measured. For the molecule `CCc1nc(N)nc(N)c1-c1cccc(OC)c1`, the concentration for half-maximal inhibition (IC50) amounted to 0.2 nM in the assay on Plasmodium falciparum [4], 3.7 nM in the assay on Plasmodium falciparum [5], 73 nM in assay [6] and 9.3 nM in assay [7]. In addition, the Ki in assay [6] was 14 nM; in assay [1] it was 14 nM; in assay [2], 1.07 nM. For the same molecule, the Ratio in assay [3] was found to be 13.1.

Turning to `CC1(C)N=C(N)N=C(N)N1c1ccc(Cl)cc1` [CYCLOGUANIL], the Ki came out at 82.1 nM in assay [1] and 2.6 nM in assay [2]. Besides, the Ratio in assay [3] came out at 31.5.

For the molecule `CCc1nc(N)nc(N)c1-c1ccc(Cl)cc1` [PYRIMETHAMINE], the IC50 in the assay with Plasmodium falciparum [4] was determined as 1.2 nM; in the assay with Plasmodium falciparum [5] it was 10.2 nM.

As to `CCc1nc(N)nc(N)c1-c1cccc(Cl)c1`, the IC50 in assay [6] amounted to 12.7 nM; in assay [7], 2.7 nM. In addition, the Ki was 2.4 nM in assay [1] and 0.3 nM in assay [2]. Besides, the Ratio in assay [3] was determined as 8.
